Key:
[1] = biological target: T1, Adrenergic receptor alpha-2 (Homo sapiens, UniProt P08913+P18825+P18089); assay: Agonist activity at human recombinant Alpha-2 adrenergic receptor expressed in CHOK1 cells after 30 mins by [35S]GTPgammaS binding assay; assay type: functional, cell-based; conditions: cho-k1
T1 sequence (P08913 whole entry): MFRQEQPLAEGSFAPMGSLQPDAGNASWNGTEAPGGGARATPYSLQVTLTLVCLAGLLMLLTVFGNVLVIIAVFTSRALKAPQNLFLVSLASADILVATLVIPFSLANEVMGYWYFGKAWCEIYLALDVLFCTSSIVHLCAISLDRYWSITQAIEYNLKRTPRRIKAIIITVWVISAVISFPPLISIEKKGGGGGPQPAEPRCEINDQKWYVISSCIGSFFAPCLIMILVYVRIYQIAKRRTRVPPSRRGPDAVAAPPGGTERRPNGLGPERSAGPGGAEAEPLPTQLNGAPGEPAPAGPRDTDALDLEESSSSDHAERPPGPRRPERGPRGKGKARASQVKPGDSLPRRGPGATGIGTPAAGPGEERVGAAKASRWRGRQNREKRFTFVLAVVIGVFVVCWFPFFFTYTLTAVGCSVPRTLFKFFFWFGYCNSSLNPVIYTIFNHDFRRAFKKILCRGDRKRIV
T1 sequence (P18825 whole entry): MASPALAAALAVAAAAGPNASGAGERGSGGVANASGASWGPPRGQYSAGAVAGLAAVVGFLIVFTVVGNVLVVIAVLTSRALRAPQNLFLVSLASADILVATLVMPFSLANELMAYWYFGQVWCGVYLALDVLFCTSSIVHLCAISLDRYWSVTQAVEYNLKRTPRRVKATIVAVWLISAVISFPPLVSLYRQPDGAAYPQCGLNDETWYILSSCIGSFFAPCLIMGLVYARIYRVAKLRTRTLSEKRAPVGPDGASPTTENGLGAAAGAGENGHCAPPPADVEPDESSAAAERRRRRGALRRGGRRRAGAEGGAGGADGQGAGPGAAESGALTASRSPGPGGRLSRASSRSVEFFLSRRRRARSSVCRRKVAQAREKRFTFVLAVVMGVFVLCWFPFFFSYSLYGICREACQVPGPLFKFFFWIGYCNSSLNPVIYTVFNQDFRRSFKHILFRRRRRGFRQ
T1 sequence (P18089 whole entry): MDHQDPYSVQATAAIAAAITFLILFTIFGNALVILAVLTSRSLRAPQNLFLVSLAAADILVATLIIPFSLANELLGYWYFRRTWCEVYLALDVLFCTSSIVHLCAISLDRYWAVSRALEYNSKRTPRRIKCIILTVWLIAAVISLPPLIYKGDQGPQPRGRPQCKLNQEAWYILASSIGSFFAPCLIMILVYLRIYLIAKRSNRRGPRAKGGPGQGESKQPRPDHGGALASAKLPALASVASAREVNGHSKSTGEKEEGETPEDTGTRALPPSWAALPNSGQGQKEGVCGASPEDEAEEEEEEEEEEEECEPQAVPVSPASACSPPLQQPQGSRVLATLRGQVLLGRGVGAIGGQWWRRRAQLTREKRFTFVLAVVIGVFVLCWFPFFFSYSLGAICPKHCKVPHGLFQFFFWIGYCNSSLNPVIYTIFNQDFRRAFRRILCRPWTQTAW

[2] = system: Rattus norvegicus; assay: Neurotoxicity in Sprague-Dawley rat assessed as induction of sedative-hypnotic state at 10 to 500 ug/kg, ip after 30 mins by LORR test; assay type: toxicity, organism-based; conditions: in vivo, 0.5 h
[3] = system: Rattus norvegicus; assay: Neurotoxicity in Sprague-Dawley rat assessed as induction of hind limb flexion at 1000 to 1500 ug/kg, ip after 15 to 30 mins by LORR test; assay type: toxicity, organism-based, Hindlimb; conditions: in vivo
[4] = system: Rattus norvegicus; assay: Neurotoxicity in Sprague-Dawley rat assessed as exploratory behaviour changes at 10 to 2000 ug/kg, ip after 30 mins by LORR test; assay type: toxicity, organism-based; conditions: in vivo, 0.5 h
[5] = system: Rattus norvegicus; assay: Neurotoxicity in Sprague-Dawley rat assessed as induction of forpaw grasping reflex at 1000 to 1500 ug/kg, ip after 15 to 30 mins by LORR test; assay type: toxicity, organism-based; conditions: in vivo
[6] = system: Rattus norvegicus; assay: Neurotoxicity in Sprague-Dawley rat assessed as induction of resistance to lateral push at 1000 to 1500 ug/kg, ip after 15 to 30 mins by LORR test; assay type: toxicity, organism-based; conditions: in vivo

| SMILES | EC50 [1] | Activity [2] | Activity [3] | Activity [4] | Activity [5] | Activity [6] |
| --- | --- | --- | --- | --- | --- | --- |
| Cl.Clc1cccc2ccn(CC3=NCCN3)c12 | 3600 nM | Non-toxic | Toxic | Non-toxic | Non-toxic | Non-toxic |
| Br.Cc1cccc2ccn(CC3=NCCN3)c12 | 7.9 nM | – | – | – | – | – |
